Experimental data taken from patent publication US10392379B2, “Hepatitis B core protein modulators” (Assembly Biosciences, Inc., priority 2015, dated 2019).

Assays:
[1] = system: HBV; experiment: Viral load production in AD38 cells by quantitative PCR of the core sequence; assay type: cell-based; conditions: Hepatitis B virus, 144 h, 10 μM compound, 6 days, supernatant qPCR, relative to DMSO control, read-out: AD38 Viral Load (%) (VL with cmpd/VL in DMSO control) at 10 μM
Experimental: (§1) AD38 cells were then re-suspended with 10 mL of Treatment Medium and counted. Wells of a collagen coated 96-well NUNC microtiter plate were seeded at 50,000/well in 180 μL of Treatment Medium, and 20 μL of in treatment media with either 10% DMSO (Control) or a 10× solution of compound in 10% DMSO was added. Plates were incubated for 6 days at 37° C.
Viral load production was assayed by quantitative PCR of the core sequence. […] The PCR mixture was incubated at 45° C. for 5 minutes, then 95° C. for 10 min, followed by 40 cycles of 10 seconds at 95° C. and 20 seconds at 60° C. Viral load was quantitated against known standards by using ViiA™ 7 Software. Viral load in the supernatant from wells with treated cells were compared against viral load in supernatant from DMSO control wells (≥3 per plate).

[2] = system: AD38 cells; experiment: Viability of AD38 cells (Promega CellTiter-Glo); assay type: cell-based; conditions: 10 μM compound, 6 days, DMSO controls = 100%
Experimental: as §1
At the end of compound treatment period cell viability was assessed using a Promega CellTiter-Glo protocol. All supernatant was removed the previously treated 96-well microtiter plate, and 50 μL Tetracycline-free treatment medium (DMEM/F12 (1:1), 1× Pen/step (cat#: 30-002-CL, Mediatech, Inc), with 2% FBS, Tet-system approved (cat#: 631106, Clontech), and 1% DMSO was added back to each well. Another 50 μL of CellTiter-Glo reagent solution (Promega, G7573) was then added at room temperature and the contents mixed for 2 minutes on an orbital shaker to induce cell lysis. This was followed by incubation at room temperature for 10 minutes to stabilize the luminescent signal. The luminescence was recorded for 0.2 seconds per well on a Tecan multimode platereader (Infinite M1000 pro). The luminescent signal from each well was normalized against that of untreated (DMSO) control wells. All results in Table 3 were reported with percent viability (with controls being 100%).

Compound | activity at 10 µM [1] | AD38 Viability Normalized Result (cmpd/DMSO %) at 10 μM [2]
O=C(NCc1cnc(-c2ccc(O)cc2Cl)nc1)c1ccc2c(c1)NC(=O)c1ccccc1S2(=O)=O [Compound 793] | 3.5% | 103%
O=C(NCc1ccc(Cc2ccc(O)cc2)nc1)c1ccc2c(c1)NC(=O)c1ccccc1S2(=O)=O [Compound 825, N-((6-(4-hydroxybenzyl)pyridin-3-yl)methyl)-11-oxo-10,11-dihydrodibenzo[b,f][1,4]thiazepine-8-carboxamide 5,5-dioxide] | 6.6% | 90%
O=C(NCc1ccc(-c2ccc3[nH]ccc3c2)nc1)c1ccc2c(c1)NC(=O)c1ccccc1S2(=O)=O [Compound 779] | 0.5% | 87%
O=C(NCc1ccc(C(F)(F)F)nc1)c1ccc2c(c1)NC(=O)c1ccccc1S2(=O)=O [Compound 875] | 26.1% | 108%
O=C(NCc1ccc(Cc2ccc(O)cc2)nc1)c1ccc2c(c1)NC(=O)c1ccccc1O2 [Compound 837, N-((6-(4-hydroxybenzyl)pyridin-3-yl)methyl)-11-oxo-10,11-dihydrodibenzo[b,f][1,4]oxazepine-8-carboxamide] | 0.9% | 108%
O=C(NCc1cncnc1)c1ccc2c(c1)NC(=O)c1ccccc1N2 [Compound 504] | 62.9% | 101%
O=C(NCc1cnc(-c2ccc3[nH]cnc3c2)nc1)c1ccc2c(c1)NC(=O)c1ccccc1S2(=O)=O [Compound 791] | 2.2% | 100%
